Assay results from PubChem BioAssay AID1919005 (Molecular Pharmacology Branch, DTP, NCI, 2023).

Tested on: 855422-203-R-J1-PDC complex spheroid growth
Assay: Anticancer human tumor 855422-203-R-J1-PDC patient-derived bladder carcinoma cell line growth inhibition [AhR]
Conditions: for IC50: curve of first compound; for viability, T/C: stronger effect = lower value
Excerpt: Multicellular complex tumor spheroid response to aryl hydrocarbon receptor antagonists in combination with a variety of drugs and investigational agents in selected tumor cell lines
The current study was undertaken to assess response to aryl hydrocarbon receptor antagonists in combination with standard-of-care drugs and investigational agents in solid tumor complex spheroid models. Complex spheroids include a stromal component modeled by human endothelial cells (HUVEC) and fibroblasts modeled by human mesenchymal stem cells (MSCs). The concentration ranges selected for each drug and investigational agent were based upon clinically achievable concentrations if the clinical Cmax of the agent was known.
Compounds. The drugs and investigational agents: BAY 2416964 (NSC825713), GNF351 (NSC835774), CH-223191 (NSC835775), CPI-455 (NSC825282), aza-TdCyd (NSC777586), decitabine (NSC127716), belinostat (NSC758774), entinostat (NSC756642), pevonedistat (NSC761192), tazemetostat (NSC777109), talazoparib (NSC765396), olaparib (NSC753686), selinexor (NSC780203), nedisertib (M3814, NSC802822), bortezomib (NSC756655), venetoclax (NSC766270), doxorubicin (NSC123127), elimusertib (BAY189344, NSC800525), ceralasertib (AZD6738, NSC777638), TAK-243 (NSC785004), alisertib (NSC759677), etoposide (NSC141540), topotecan (NSC609699), eribulin (NSC707389), gemcitabine (NSC613327), carboplatin (NSC241240), cisplatin (NSC119875), and SN-38 (NSC673596) were obtained from the National Cancer Institute (NCI) Developmental Therapeutics Program Chemical Repository (32). The FDA-approved anticancer drug set is available from the Developmental Therapeutics Program at https://dtp.cancer.gov/organization/dscb/obtaining/available plates.htm. […] The stock solutions were prepared in dimethyl sulfoxide (DMSO, Sigma-Aldrich, St. Louis, MO, cat. D2650), except for the platinum compounds which were prepared in saline (Quality Biological, Gaithersburg, MD, cat. 114-055-101), at 800-fold the tested concentration and stored at -70 degrees C prior to their use. All drugs and investigational agents were tested over a range starting from a high concentration at or near the clinical Cmax and decreasing in half-log increments. If the clinical Cmax for an agent had not been determined, the highest concentration tested was 10 microM (Table 1).
Cell Culture. All cells were maintained in an incubator at 37 degrees C and 5% CO2 with 95% humidity. The PDC lines were cultured according to standard operating procedures established by the NCI PDMR (https://pdmr.cancer.gov). Briefly, all PDCs were thawed and cultured in Matrigel-coated flasks prepared with a working solution of 1X Ham's F-12 nutrient mix, without supplementation (Invitrogen, Waltham, MA, cat. 11765054), 100 U/mL penicillin-streptomycin (Invitrogen, cat. 15140122), and 2.5% Matrigel (Corning Inc., Corning, NY, cat. 354248) for the first three passages. All PDCs were cultured in complete DMEM/F-12 media containing advanced DMEM/F-12 (Invitrogen, cat. 12634028), 4.9% defined fetal bovine serum, heat inactivated (HyClone Laboratories Inc., Logan, UT, cat. SH30070.03HI), 389 ng/mL hydrocortisone (Sigma-Aldrich, cat. H4001), 9.7 ng/mL human EGF recombinant protein (Invitrogen, cat. PHG0313), 23.4 microg/mL adenine (Sigma-Aldrich, cat. A2786), 97.3 U/mL penicillin-streptomycin (Invitrogen, cat. 15140122), 1.9 mM L-glutamine (Invitrogen, cat. 25030081), and 9.7 microM Y-27632 dihydrochloride (Tocris Bioscience, Bristol, United Kingdom, cat. 1254). The PDCs were cultured in complete DMEM/F12 media without 10 microM Y-27632 dihydrochloride for at least two passages prior to the screen. The established cell lines NCI-H1341 and […] were cultured in DMEM/F-12, HEPES (Invitrogen, cat. 11330032), 5% defined fetal bovine serum (HyClone Laboratories Inc., cat. SH30070.03), ITS premix universal culture supplement [insulin (5 microg/mL), transferrin (5 microg/mL), and selenious acid (5 ng/mL)] […]

[1] = second compound 0.1 µM, first compound 0.0316 µM
[2] = second compound 0.1 µM, first compound 0.1 µM
[3] = second compound 0.1 µM, first compound 0.316 µM
[4] = second compound 0.1 µM, first compound 1 µM
[5] = second compound 0.1 µM, first compound 3.16 µM
[6] = second compound 0.1 µM, first compound 10 µM
[7] = second compound 0.316 µM, first compound 0.0316 µM
[8] = second compound 0.316 µM, first compound 0.1 µM
[9] = second compound 0.316 µM, first compound 0.316 µM
[10] = second compound 0.316 µM, first compound 1 µM
[11] = second compound 0.316 µM, first compound 3.16 µM
[12] = second compound 0.316 µM, first compound 10 µM
[13] = second compound 1 µM, first compound 0.0316 µM
[14] = second compound 1 µM, first compound 0.1 µM
[15] = second compound 1 µM, first compound 0.316 µM
[16] = second compound 1 µM, first compound 1 µM
[17] = second compound 1 µM, first compound 3.16 µM
[18] = second compound 1 µM, first compound 10 µM
[19] = second compound 3.16 µM, first compound 0.0316 µM
[20] = second compound 3.16 µM, first compound 0.1 µM
[21] = second compound 3.16 µM, first compound 0.316 µM
[22] = second compound 3.16 µM, first compound 1 µM
[23] = second compound 3.16 µM, first compound 3.16 µM
[24] = second compound 3.16 µM, first compound 10 µM
[25] = second compound 10 µM, first compound 0.0316 µM
[26] = second compound 10 µM, first compound 0.1 µM
[27] = second compound 10 µM, first compound 0.316 µM
[28] = second compound 10 µM, first compound 1 µM
[29] = second compound 10 µM, first compound 3.16 µM
[30] = second compound 10 µM, first compound 10 µM
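Note: spheroids exposed to agents for seven days before readout.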
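Throughout, for viability, T/C: percent of DMSO vehicle control luminescence viability.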

IC50 (second compound 0.1 µM)	IC50 (second compound 0.316 µM)	IC50 (second compound 1 µM)	IC50 (second compound 3.16 µM)	IC50 (second compound 10 µM)	SMILES	viability, T/C [1]	viability, T/C [2]	viability, T/C [3]	viability, T/C [4]	viability, T/C [7]	viability, T/C [8]	viability, T/C [9]	viability, T/C [10]	viability, T/C [13]	viability, T/C [14]	viability, T/C [15]	viability, T/C [16]	viability, T/C [19]	viability, T/C [20]	viability, T/C [21]	other results
0.468 µM	0.463 µM	0.505 µM	0.434 µM	0.368 µM	COc1cc(C2c3cc4c(cc3C(OC3OC5COC(C)OC5C(O)C3O)C3COC(=O)C23)OCO4)cc(OC)c1O (stereo not given) + Cc1ccccc1N=Nc1ccc(NC(=O)c2ccnn2C)c(C)c1	96.5%	93.2%	60.8%	26.7%	93.7%	96.6%	61%	24.6%	98.8%	95.7%	65%	26.5%	82.9%	83.9%	58.1%	viability, T/C [5]: 15.2%; viability, T/C [6]: 7.04%; viability, T/C [11]: 14.8%; viability, T/C [12]: 6.03%; viability, T/C [17]: 15.9%; viability, T/C [18]: 6.19%; viability, T/C [22]: 25.3%; viability, T/C [23]: 12.4%; viability, T/C [24]: 5.67%; viability, T/C [25]: 83%; viability, T/C [26]: 82.8%; viability, T/C [27]: 48.3%; viability, T/C [28]: 29.8%; viability, T/C [29]: 13.7%; viability, T/C [30]: 7.06%
2.66 µM	2.31 µM	2.01 µM	0.475 µM	< 0.0316 µM	Nc1ccccc1NC(=O)c1ccc(CNC(=O)OCc2cccnc2)cc1 + Cc1cncc(-c2nc(NCCc3c[nH]c4ccccc34)c3ncn(C(C)C)c3n2)c1	88.7%	81.7%	76.4%	74.3%	86.9%	83.7%	69.5%	76.4%	88.7%	87.9%	78.2%	73.9%	82.2%	73.8%	63.9%	viability, T/C [5]: 45.2%; viability, T/C [6]: 5.46%; viability, T/C [11]: 40.7%; viability, T/C [12]: 5.76%; viability, T/C [17]: 35.4%; viability, T/C [18]: 4.53%; viability, T/C [22]: 26.4%; viability, T/C [23]: 22.1%; viability, T/C [24]: 5.42%; viability, T/C [25]: 7.49%; viability, T/C [26]: 5.93%; viability, T/C [27]: 0.88%; viability, T/C [28]: 0.3%; viability, T/C [29]: 0.17%; viability, T/C [30]: 0.17%
< 0.0316 µM	< 0.0316 µM	< 0.0316 µM	< 0.0316 µM	< 0.0316 µM	COc1cccc2c1C(=O)c1c(O)c3c(c(O)c1C2=O)CC(O)(C(=O)CO)CC3OC1CC(N)C(O)C(C)O1 (stereo not given) + Cc1cncc(-c2nc(NCCc3c[nH]c4ccccc34)c3ncn(C(C)C)c3n2)c1	19.5%	15.4%	2.05%	0.85%	22.4%	13.7%	1.65%	0.73%	17.8%	10.3%	4.93%	4.6%	17.9%	7.51%	2.13%	viability, T/C [5]: 1.02%; viability, T/C [6]: 1.75%; viability, T/C [11]: 0.93%; viability, T/C [12]: 1.37%; viability, T/C [17]: 0.74%; viability, T/C [18]: 1.14%; viability, T/C [22]: 1.95%; viability, T/C [23]: 1.19%; viability, T/C [24]: 0.94%; viability, T/C [25]: 4.02%; viability, T/C [26]: 1.33%; viability, T/C [27]: 0.55%; viability, T/C [28]: 0.22%; viability, T/C [29]: 0.28%; viability, T/C [30]: 0.3%
0.527 µM	0.507 µM	0.507 µM	0.351 µM	0.298 µM	CC1COCCN1c1cc(-c2ccnn2C)c2ccnc(-c3ccn[nH]3)c2n1 (stereo not given) + Cc1ccccc1N=Nc1ccc(NC(=O)c2ccnn2C)c(C)c1	97.7%	98.4%	67.6%	27.8%	97.5%	101%	68%	24.1%	91%	97.8%	66%	26.9%	87.3%	92.6%	52.7%	viability, T/C (second compound 0.1 µM, first compound 0.00316 µM): 104%; viability, T/C (second compound 0.1 µM, first compound 0.01 µM): 99.4%; viability, T/C (second compound 0.316 µM, first compound 0.00316 µM): 101%; viability, T/C (second compound 0.316 µM, first compound 0.01 µM): 107%; viability, T/C (second compound 1 µM, first compound 0.00316 µM): 100%; viability, T/C (second compound 1 µM, first compound 0.01 µM): 106%; viability, T/C (second compound 3.16 µM, first compound 0.00316 µM): 88.6%; viability, T/C (second compound 3.16 µM, first compound 0.01 µM): 86.7%; viability, T/C [22]: 23%; viability, T/C (second compound 10 µM, first compound 0.00316 µM): 77.1%; viability, T/C (second compound 10 µM, first compound 0.01 µM): 83.5%; viability, T/C [25]: 76.4%; viability, T/C [26]: 73%; viability, T/C [27]: 48.7%; viability, T/C [28]: 20.9%
